According to patent publication US8022095B2, “Methods of treating headaches using 5-HT agonists in combination with long-acting NSAIDs” (Pozen, Inc., priority 1996, dated 2011):
Where two headings read alike, the source gives them in different places.

Experiments:
[1] = cited from earlier work; for time of peak plasma concentration after oral administration: oral dosing; for half-life: pharmacokinetic / plasma half-life; for lead time to peak plasma levels: list follows the words 'intramuscular routes will generally have shorter lead times to peak plasma levels'
migraine = assay: Comparison of MT 400, triptan alone, NSAID alone and placebo in migraine patients; type: in vivo, human; conditions: for % with nausea / % with phonophobia / % with photophobia / Number with nausea / Number with phonophobia / Number with photophobia: at 2 hours; for Number with nausea / Number with phonophobia / Number with photophobia / Sustained Response (Sustained Pain Response), number of subjects / Sustained Pain Free responders, number of subjects: N = 250 / 229 / 247; for patients with improvement from moderate or severe pain at baseline to mild or no pain: at two hours; for Sustained Response (Sustained Pain Response), number of subjects: initial pain response without return of pain for 24 hours; for Sustained Pain Free responders, number of subjects: pain score 0 at 2 hours and from 2 to 24 hours without rescue; for therapeutic gain, Sustained Pain Free / therapeutic gain over placebo, sustained response / therapeutic gain over placebo, pain response: response rate minus placebo response; for therapeutic gain over placebo, sustained response: 24 hours; for therapeutic gain over placebo, pain response: pain response at two hours; for Sustained Response (Sustained Pain Response), percentage of subjects: initial pain response without return of pain for 24 hours after dosing
Description: In these experiments, a comparison was made between: patients administered triptan alone; patients administered NSAID alone; patients administered a combination of triptan and NSAID (“MT400”); and, in some cases, patients administered a placebo.
Sustained response was evaluated based upon the number of patients that experience an initial pain response without a return of pain for the 24 hours after dosing.
The most desirable outcome for the treatment of migraine is that the pain be eliminated quickly and not return. This outcome measure is termed Sustained Pain Free. Responders are defined as patients having a pain score of 0 at 2 hours and nothing more than 0 from 2 to 24 hours post dose without the need for rescue.
As migraine is a pathological complex characterized by unilateral headache, often accompanied by associated symptoms of nausea, photophobia and phonophobia, efficacy against these other parameters is important in evaluating the efficacy of a drug candidate.

COX-2 = target: T1, COX-2 (Homo sapiens, UniProt P35354); conditions: reported (Feldman 2000; Sengupta 1999); cited from earlier work
T1 sequence (P35354 18-604): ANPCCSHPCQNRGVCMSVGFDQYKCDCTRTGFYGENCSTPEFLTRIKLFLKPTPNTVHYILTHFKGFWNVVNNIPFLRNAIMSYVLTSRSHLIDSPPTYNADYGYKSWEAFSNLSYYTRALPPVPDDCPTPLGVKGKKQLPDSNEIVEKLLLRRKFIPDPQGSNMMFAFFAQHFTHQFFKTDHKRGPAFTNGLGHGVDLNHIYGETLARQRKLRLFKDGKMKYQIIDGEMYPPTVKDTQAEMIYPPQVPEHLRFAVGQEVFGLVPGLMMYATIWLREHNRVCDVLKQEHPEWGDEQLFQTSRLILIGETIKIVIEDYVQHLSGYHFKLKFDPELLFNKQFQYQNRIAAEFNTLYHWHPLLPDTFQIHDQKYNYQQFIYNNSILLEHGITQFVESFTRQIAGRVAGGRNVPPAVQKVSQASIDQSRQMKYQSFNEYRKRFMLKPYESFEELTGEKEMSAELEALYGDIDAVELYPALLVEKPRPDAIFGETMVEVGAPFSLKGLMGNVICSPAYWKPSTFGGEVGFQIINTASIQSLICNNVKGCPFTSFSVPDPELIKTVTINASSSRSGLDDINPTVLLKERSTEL

migraine attack = test system: migraine attack
Description: Headache relief at two hours was determined in a manner identical to that described above, but the relapse and sustained response rates were calculated based solely on a return of moderate or severe headache pain (i.e., no “rescue medication” protocol was used as a separate indicator of relapse).

migraine attacks = assay: Open-label, randomized out-patient study, 16 migraine patients with high relapse rate, two successive migraine attacks; type: in vivo, human
Description: Headache pain was assessed by the patients on a 4-point scale (no pain, mild pain, moderate pain, or severe pain). Each patient was treated for two migraine attacks of moderate or severe intensity at baseline and pain scores were recorded every 30 minutes for the first two hours following dosing and at 3, 4, 6, 12 and 24 hours post-dose. “Relapse” was defined to occur in those patients who responded with an adequate reduction in headache pain (moderate or severe at baseline, reduced to no pain or mild pain) at 2 hours after administration and, in whom, over the next 22 hours either: (a) headache pain returned to moderate or severe intensity; or (b) “rescue medication” was required to treat the recurrent headache pain.

## Cc1ccc(-c2cc(C(F)(F)F)nn2-c2ccc(S(N)(=O)=O)cc2)cc1 [Celecoxib, celecoxib]
[1]
  time of peak plasma concentration after oral administration: approximately 3 hours
  half-life: approximately 11 hours

## CNS(=O)(=O)Cc1ccc2[nH]cc(CCN(C)C)c2c1 [Imitrex, sumatriptan succinate]
migraine
  % with nausea: (31.9%)
  % with phonophobia: (44.5%)
  % with photophobia: (50.2%)
  Number with nausea: 73
  Number with phonophobia: 102
  Number with photophobia: 115
  patients with improvement from moderate or severe pain at baseline to mild or no pain: 49%
  Sustained Response (Sustained Pain Response), number of subjects: 66
  Sustained Pain Free responders, number of subjects: 25
  therapeutic gain, Sustained Pain Free: 5.9%
  therapeutic gain over placebo, sustained response: 12%
  therapeutic gain over placebo, pain response: 22%

## CCc1cccc2c3c([nH]c12)C(CC)(CC(=O)O)OCC3 (stereo not shown) [etodolac]
[1]
  half-life: about 7 hours
COX-2
  specificity for COX-2: highly specific for COX-2

## CC(C(=O)O)c1ccc(-c2ccccc2)c(F)c1 (stereo not shown) [flurbiprofen]
[1]
  half-life: about 6 hours

## COc1ccc2c(c1)c(CC(=O)O)c(C)n2C(=O)c1ccc(Cl)cc1 [indomethacin]
[1]
  lead time to peak plasma levels: 1 to 4 h

## O=C(c1ccccc1)c1ccc2n1CCC2C(=O)O (stereo not shown) [ketorolac]
[1]
  half-life: 8 to 9 h

## CN1C(C(=O)Nc2ccccn2)=C(O)c2sc(Cl)cc2S1(=O)=O [lornoxicam]
[1]
  time of peak plasma concentration after oral administration: approximately two
  half-life: about 4 hours
[1]; listed as Lornoxicam
  half-life: approximately 4 hours

## Cc1ccc(Cl)c(Nc2ccccc2C(=O)O)c1Cl [meclofenamate, Meclofenamate sodium]
[1]
  lead time to peak plasma levels: 0.5 to 1 h

## Cc1cccc(Nc2ccccc2C(=O)O)c1C [mefenamic acid]
[1]
  half-life: up to 4 hours
COX-2
  specificity for COX-2: highly specific for COX-2

## COc1ccc2cc(CCC(C)=O)ccc2c1 [nabumetone]
[1]
  lead time to peak plasma levels: 2.5 to 4 h
  half-life: 22 to 30 h

## COc1ccc2cc([C@H](C)C(=O)O)ccc2c1 [naproxen sodium]
Migraine attack; 500 mg naproxen sodium alone, based solely on return of moderate or severe headache pain
  relapse rate: 26%

## COc1ccc2cc([C@H](C)C(=O)O)ccc2c1 [naproxen]
Migraine attack; responds initially and no relapse in twenty-four hours
  sustained response rate: 46%
migraine
  % with nausea: (31.2%)
  % with phonophobia: (47.8%)
  % with photophobia: (57.5%)
  Number with nausea: 77
  Number with phonophobia: 118
  Number with photophobia: 142
  patients with improvement from moderate or severe pain at baseline to mild or no pain: 46%
  Sustained Response (Sustained Pain Response), percentage of subjects: 24.7%
  Sustained Response (Sustained Pain Response), number of subjects: 61
  Sustained Pain Free responders, number of subjects: 29
  therapeutic gain, Sustained Pain Free: 6.7%
  therapeutic gain over placebo, sustained response: 8%
  therapeutic gain over placebo, pain response: 19%
migraine; listed as Naproxen
  Sustained Response (Sustained Pain Response), percentage of subjects: (24.7%)
migraine; pain score 0 at 2 hours and nothing more than 0 from 2 to 24 hours post dose without rescue
  Sustained Pain Free responders, percentage of subjects: (11.7%)

## O=C(O)CCc1nc(-c2ccccc2)c(-c2ccccc2)o1 [oxaprozin]
[1]
  half-life: 42 to 50 h
[1]; listed as Oxaprozin
  half-life: 42 to 50 h

## CN1C(C(=O)Nc2ccccn2)=C(O)c2ccccc2S1(=O)=O [piroxicam]
[1]; in vivo
  time of dosing until steady state plasma concentrations are reached: 7 to 12 days

## CS(=O)(=O)c1ccc(C2=C(c3ccccc3)C(=O)OC2)cc1 [rofecoxib]
[1]
  time of peak plasma concentration after oral administration: 2 to 3 h
  half-life: about 17 hours

## CNS(=O)(=O)Cc1ccc2[nH]cc(CCN(C)C)c2c1 [sumatriptan]
Migraine attacks; % of 16 patients, relapse criteria including rescue medication
  24 hour sustained response: 44%
Migraine attacks; of 16 patients, relapse criteria including rescue medication
  number of patients with 24 hour sustained response: seven
Migraine attacks; re-analysed, based solely on return of moderate or severe headache pain
  relapse rate: 40%
Migraine attacks; relapse = return of moderate or severe pain or rescue medication within 22 hours after the 2 hour response
  relapse rate of responding patients: 46%
Migraine attacks; responds initially and no relapse in twenty-four hours, criteria of the second study
  sustained response rate: 56%
[1]; oral doses of about 1-300 mg
  peak serum concentration: 1 to 300 ng/mL
[1]; subcutaneous injections of about 1 to 8 mg
  peak serum concentration: 1 to 150 ng/mL

## Cc1onc(-c2ccccc2)c1-c1ccc(S(N)(=O)=O)cc1 [valdecoxib]
[1]
  time of peak plasma concentration after oral administration: 2 to 3 h
  half-life: 8 to 11 h
